The values that follow are results of earlier work, collected in patent US20240398886A1, “EFFECTIVE EYELID, FACE, HEAD AND BODY CLEANSER” (priority 2023, published 2024).

The conditions of data set [1]: humans and warm-blooded vertebrates; refs (12, 13).
For data set [2] the following is noted: mammals; refs (12, 13).

Each structure is given as a SMILES string.

As for `C/C=C(\C)C(=O)O[C@H]1C[C@@H](OC(C)=O)[C@@]2(C(=O)OC)CO[C@H]3[C@@H](O)[C@@](C)([C@]45O[C@@]4(C)[C@H]4C[C@@H]5O[C@@H]5OC=C[C@@]54O)[C@H]4[C@]1(CO[C@]4(O)C(=O)OC)[C@@H]32` [Azadirachtin], the toxicity entry in data set [1] is “non-toxic”. In addition, in data set [2], the genotoxicity result was “without genotoxicity”.
